Key:
TK-10 cells = assay: Apoptosis analysis (Annexin V-FITC / propidium iodide); format: cell-based, human; details: TK-10, 48 hour
Experimental: (§1) Briefly, cells were pulsed at the indicated times with 30 μM of bromodeoxyuridine (BrdU, Sigma) for 30 min, harvested, fixed and permeabilized in methanol. Nascent DNA synthesis was detected by anti-bromodeoxyuridine-FITC (BD Biosciences, San Jose, Calif.) staining. Total DNA content was detected using propidium iodide (PI, Sigma). For apoptosis analysis, cells were treated as above and labeled with Annexin V-FITC followed by propidium iodide exclusion using the Annexin V-FITC Apoptosis Detection kit I (BD PharMingen, San Diego, Calif.) according to the manufacturer's protocols. Flow cytometry (as described in the previous Example) was used to assay both cell cycle and apoptosis studies.
(§2) To investigate this possibility, analysis of apoptosis using Annexin-V surface binding and loss of propidium iodide (PI) exclusion was performed.

SK-Mel-2 cells = assay: as above; format: cell-based, human; details: for % AnnV+/PI+ UR / % AnnV+/PI− LR / % AnnV−/PI+ UL: SK-Mel-2, 48 hour
Experimental: as §1, §2

[1] = Pharmacokinetics of CR011-vcMMAE after intravenous administration (sandwich ELISA of serum); format: in vivo, athymic mice; details: for A (pre-exponential constant for alpha phase) / AUC (total area under the curve from 0 to infinity) / Alpha (exponential rate constant for alpha phase) / Alpha-Half Life / B (pre-exponential constant for beta phase) / Beta (exponential rate constant for beta phase) / Beta- Half Life / Cl (total or systemic clearance) / Cmax / Volume (volume of central compartment) / Vss (steady-state volume of distribution): athymic mice, serum
From the text: Abbreviations: A: Pre-exponential constant for alpha phase; Alpha: Exponential rate constant for alpha phase; AUC Total area under the curve from 0 to infinity; B: Pre-exponential constant for beta phase; Beta: Exponential rate constant for beta phase; Cl: Total or systemic clearance; Cmax: Maximum observed concentration; MRT: Mean residence time; Volume: Volume of central compartment; Vss: Steady-state volume of distribution.

UACC-62 = assay: Clonogenic assay with 1.15.1-AE; format: cell-based, human
Experimental: (§3) Melanoma cell lines were plated onto flat bottom 96-well tissue culture plates (Becton Dickinson, Franklin Lakes, N.J., USA). On day 2 or when cells reach ˜25% confluency, various concentrations of unconjugated and Auristatin E-conjugated 1.15.1 were added to cells. MAb 2.6.2-AE was also used as a conjugated isotype control in this study. On day 5, the cells were trypsinized, transferred to 6-well tissue culture plates and incubated at 37° C. Plates were examined daily. On days 8-10, all plates were Giemsa stained and colonies on the plates were counted.

HT144 = assay: Clonogenic assay with 1.15.1-AE; format: cell-based, human
Experimental: as §3

WM-266-4 = assay: Clonogenic assay with 1.15.1-AE; format: cell-based, human
Experimental: as §3

RPMI-7951 = assay: Clonogenic assay with 1.15.1-AE; format: cell-based, human
Experimental: as §3

SK-Mel 2 = assay: Clonogenic assay with 1.15.1-AE; format: cell-based, human
Experimental: as §3

HEMNLP = assay: Clonogenic assay with 1.15.1-AE; format: cell-based, human
Experimental: as §3

A2058 = assay: Clonogenic assay with 1.15.1-AE; format: cell-based, human
Experimental: as §3

LOXIMVI = assay: Clonogenic assay with 1.15.1-AE; format: cell-based, human
Experimental: as §3

M14 = assay: Clonogenic assay with 1.15.1-AE; format: cell-based, human
Experimental: as §3

G361 = assay: Clonogenic assay with 1.15.1-AE; format: cell-based, human
Experimental: as §3

UACC-257 = assay: Clonogenic assay with 1.15.1-AE; format: cell-based, human
Experimental: as §3

SK-Mel 5 = assay: Clonogenic assay with 1.15.1-AE; format: cell-based, human
Experimental: as §3

MEWO = assay: Clonogenic assay with 1.15.1-AE; format: cell-based, human
Experimental: as §3

[2] = system: KG-1 (acute myelogenous leukemia); assay: Clonogenic assay with 1.15.1-AE (methylcellulose); format: cell-based
Experimental: (§4) Lymphoma or leukemia cell lines were mixed with methylcellulose base media (R&D Systems, USA) and in various concentrations of unconjugated and Auristatin E-conjugated 1.15.1 antibody before plating onto 6-well tissue culture plates (Becton Dickinson, Franklin Lakes, N.J., USA). […] Plates were incubated at 37° C. and examined daily. On days 14-18, colonies on the plates were counted.

SUP-M2 (ALCL) = assay: Clonogenic assay with 1.15.1-AE (methylcellulose); format: cell-based
Experimental: as §4

[3] = system: U937 (histiocytic lymphoma, monocytic); assay: Clonogenic assay with 1.15.1-AE (methylcellulose); format: cell-based
Experimental: as §4

SU-DHL-1 (ALCL) = assay: Clonogenic assay with 1.15.1-AE (methylcellulose); format: cell-based
Experimental: as §4

[4] = system: SR (anaplastic large T cell lymphoma, ALCL); assay: Clonogenic assay with 1.15.1-AE (methylcellulose); format: cell-based
Experimental: as §4

DEL (ALCL) = assay: Clonogenic assay with 1.15.1-AE (methylcellulose); format: cell-based
Experimental: as §4

[5] = system: MOLT-4 (acute T cell lymphoblastic leukemia); assay: Clonogenic assay with 1.15.1-AE (methylcellulose); format: cell-based
Experimental: as §4

[6] = system: PL-21 (acute myeloid leukemia); assay: Clonogenic assay with 1.15.1-AE (methylcellulose); format: cell-based
Experimental: as §4

Karpas 299 (ALCL) = assay: Clonogenic assay with 1.15.1-AE (methylcellulose); format: cell-based
Experimental: as §4

## CR011-vcMMAE: anti-GPNMB antibody 1.15.1 coupled to monomethylauristatin E via protease-sensitive valine-citrulline linker
TK-10 cells; 100 ng/mL
  % AnnV+/PI+ UR: 0.57%
  % AnnV+/PI− LR: 1.00%
  % AnnV−/PI+ UL: 0.71%
TK-10 cells; 1000 ng/mL
  % AnnV+/PI+ UR: 0.83%
  % AnnV+/PI− LR: 0.56%
  % AnnV−/PI+ UL: 0.86%
SK-Mel-2 cells; 1000 ng/mL, 48 hr
  increase in mono-stained (Annexin-V+/PI−) cells: 11%
SK-Mel-2 cells; 100 ng/mL
  % AnnV+/PI+ UR: 0.40%
  % AnnV+/PI− LR: 9.37%
  % AnnV−/PI+ UL: 0.30%
SK-Mel-2 cells; 1000 ng/mL
  % AnnV+/PI+ UR: 2.02%
  % AnnV+/PI− LR: 13.83%
  % AnnV−/PI+ UL: 2.08%
[1]; 1 mg/kg intravenous
  A (pre-exponential constant for alpha phase): 8.97 µg/mL
  AUC (total area under the curve from 0 to infinity): 3712 µg·h/mL
  Alpha (exponential rate constant for alpha phase): 0.179 h⁻¹
  Alpha-Half Life: 0.162 days
  B (pre-exponential constant for beta phase): 9.82 µg/mL
  Beta (exponential rate constant for beta phase): 0.00269 h⁻¹
  Beta- Half Life: 10.8 days
  Cl (total or systemic clearance): 6.46 mL/day/kg
  Cmax: 18.8 µg/mL
  Volume (volume of central compartment): 0.0532 L/kg
  Vss (steady-state volume of distribution): 0.099 L/kg
[1]; 10 mg/kg intravenous
  A (pre-exponential constant for alpha phase): 74.6 µg/mL
  AUC (total area under the curve from 0 to infinity): 41210 µg·h/mL
  Alpha (exponential rate constant for alpha phase): 0.0812 h⁻¹
  Alpha-Half Life: 0.3555 days
  B (pre-exponential constant for beta phase): 113 µg/mL
  Beta (exponential rate constant for beta phase): 0.00281 h⁻¹
  Beta- Half Life: 10.3 days
  Cl (total or systemic clearance): 5.83 mL/day/kg
  Cmax: 188 µg/mL
  Volume (volume of central compartment): 0.0532 L/kg
  Vss (steady-state volume of distribution): 0.0845 L/kg
[1]; 1 or 10 mg/kg intravenously
  T1/2β: 10.3 days
  contribution of the initial phase (α) to the total AUC: < 2%
[1]; intravenous
  volume of distribution at steady state (Vss): very low
UACC-62
  Clonogenic Assay with 1.15.1-AE IC50: 0.697 µg/mL
  IC50: 4.3 nM
HT144
  Clonogenic Assay with 1.15.1-AE IC50: Inconclusive
WM-266-4
  Clonogenic Assay with 1.15.1-AE IC50: 0.345 µg/mL
  IC50: 2.3 nM
RPMI-7951
  Clonogenic Assay with 1.15.1-AE IC50: 0.972 µg/mL
  IC50: 6 nM
SK-Mel 2
  Clonogenic Assay with 1.15.1-AE IC50: 0.111 µg/mL
  IC50: 0.75 nM
HEMNLP
  Clonogenic Assay with 1.15.1-AE IC50: Inconclusive
A2058
  Clonogenic Assay with 1.15.1-AE IC50: No effect
LOXIMVI
  Clonogenic Assay with 1.15.1-AE IC50: No effect
M14
  Clonogenic Assay with 1.15.1-AE IC50: Inconclusive
G361
  Clonogenic Assay with 1.15.1-AE IC50: 1.053 µg/mL
  IC50: 6.5 nM
UACC-257
  Clonogenic Assay with 1.15.1-AE IC50: 0.825 µg/mL
  IC50: 5.5 nM
SK-Mel 5
  Clonogenic Assay with 1.15.1-AE IC50: 0.237 µg/mL
  IC50: 1.6 nM
MEWO
  Clonogenic Assay with 1.15.1-AE IC50: Inconclusive
[2]
  Clonogenic Assay with 1.15.1-AE IC50: No growth
SUP-M2 (ALCL)
  Clonogenic Assay with 1.15.1-AE IC50: No growth
[3]
  Clonogenic Assay with 1.15.1-AE IC50: 0.34 µg/mL
  IC50: 2.4 nM
SU-DHL-1 (ALCL)
  Clonogenic Assay with 1.15.1-AE IC50: No effect
[4]
  Clonogenic Assay with 1.15.1-AE IC50: 0.296 µg/mL
  IC50: 2 nM
DEL (ALCL)
  Clonogenic Assay with 1.15.1-AE IC50: No effect
[5]
  Clonogenic Assay with 1.15.1-AE IC50: No effect
[6]
  Clonogenic Assay with 1.15.1-AE IC50: No effect
Karpas 299 (ALCL)
  Clonogenic Assay with 1.15.1-AE IC50: Inconclusive
